From ChEMBL document CHEMBL1132596, “Non-peptide corticotropin-releasing hormone antagonists: syntheses and structure-activity relationships of 2-anilinopyrimidines and -triazines” (J Med Chem, 1999)
Values joined by “and” are separate entries in the source; they are usually repeats but may differ in a detail not shown here. Identical values can stand only once.

Tested on: not listed separately
Assay: Bioavailability in rat (dose 30 mg/kg i.p.)
Type: ADME, organism-based
Conditions: in vivo, ip

SMILES | bioavailability [%]
CCN(c1nc(C)cc(C)n1)c1c(Br)cc(OC)cc1OC | 4

Tested on: not listed separately
Assay: The maximum concentration of the compound was measured in rat at dose 30 mg/kg after intraperitoneal administration.
Type: ADME, organism-based
Parameters: dose 30 mg/kg, route intraperitoneal
Conditions: in vivo, ip

SMILES | Cmax [nM]
CCN(c1nc(C)cc(C)n1)c1c(Br)cc(OC)cc1OC | 366

Tested on: not listed separately
Assay: Tmax is the time taken to reach maximum concentration was measured on rat at dose 30 mg/kg after intravenous administration.
Type: ADME, organism-based
Parameters: dose 30 mg/kg, route intravenous
Conditions: in vivo

SMILES | Tmax [h]
CCN(c1nc(C)cc(C)n1)c1c(Br)cc(OC)cc1OC | 0.25

Tested on: not listed separately
Assay: the half life period was measured in rat at dose 30 mg/kg after intravenous administration.
Type: ADME, organism-based
Parameters: dose 30 mg/kg, route intravenous
Conditions: in vivo

SMILES | half-life [h]
CCN(c1nc(C)cc(C)n1)c1c(Br)cc(OC)cc1OC | 5.9

Tested on: not listed separately
Assay: The bioavailability measured as F(%) on rat at dose 30 mg/kg […].
Type: ADME, organism-based
Conditions: in vivo

SMILES | bioavailability [%]
CCN(c1nc(C)cc(C)n1)c1c(Br)cc(OC)cc1OC | 26

Tested on: not listed separately
Assay: Tmax is the time taken to reach maximum concentration was measured on rat at dose 30 mg/kg after intraperitoneal administration.
Type: ADME, organism-based
Parameters: dose 30 mg/kg, route intraperitoneal
Conditions: in vivo, ip

SMILES | Tmax [h]
CCN(c1nc(C)cc(C)n1)c1c(Br)cc(OC)cc1OC | 1.2

Molecular target: T1, Corticotropin-releasing factor receptor 1 (Homo sapiens, UniProt P34998)
T1 sequence (P34998 whole entry): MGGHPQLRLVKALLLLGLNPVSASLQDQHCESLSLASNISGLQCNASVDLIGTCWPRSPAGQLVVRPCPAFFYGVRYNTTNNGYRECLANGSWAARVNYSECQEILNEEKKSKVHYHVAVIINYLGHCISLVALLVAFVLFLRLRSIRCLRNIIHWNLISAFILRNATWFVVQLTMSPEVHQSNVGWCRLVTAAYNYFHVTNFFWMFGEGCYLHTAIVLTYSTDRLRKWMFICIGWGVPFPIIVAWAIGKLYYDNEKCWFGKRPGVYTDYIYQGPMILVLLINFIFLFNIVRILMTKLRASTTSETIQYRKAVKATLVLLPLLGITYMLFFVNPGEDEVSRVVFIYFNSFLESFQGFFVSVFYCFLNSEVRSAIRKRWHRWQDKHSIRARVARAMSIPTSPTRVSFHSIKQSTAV
Assay: Binding affinity for human recombinant corticotropin releasing factor receptor 1
Conditions: not given

SMILES | Ki
CCCCN(CC)c1nc(C)nc(N(CC)c2c(C)cc(C)cc2C)n1 | 23 nM
CCN(CC)c1cc(C)nc(N(CC)c2ccc(N(C)C)cc2Br)n1 | 27 nM
CCCCN(CC)c1cc(C)nc(N(CC)c2ccc(I)cc2Br)n1 | 14 nM
CCN(c1nc(C)cc(C)n1)c1c(Br)cc(C(C)C)cc1OC | 26 nM
CCC(CC)Nc1nc(C)nc(N(CC)c2ccc(C(C)C)cc2Br)n1 | 41 nM
CCN(CC)c1cc(C)nc(N(CC)c2c(Br)cc(C(C)C)cc2SC)n1 | 26 nM
CCN(CC)c1nc(C)nc(N(CC)c2ccc(N(C)C)cc2C(F)(F)F)n1 | 20 nM
CCCCN(CC#N)c1nc(C)nc(N(CC)c2ccc(N(C)C)cc2C(F)(F)F)n1 | 6 nM
CCN(c1nc(C)cc(C)n1)c1ccc(N(C)C)cc1C | 54 nM
CCN(c1nc(C)cc(N(CCOC)Cc2ccccc2)n1)c1ccc(C(C)C)cc1Br | 14 nM
CCN(CC)c1cc(C)nc(N(CC)c2c(Cl)cc(Br)cc2Cl)n1 | 24 nM
C=CCN(c1nc(C)nc(N(CC)c2ccc(C(C)C)cc2Br)n1)C1CC1 | 5 nM
CCCCN(CC)c1nc(C)nc(N(CC)c2ccc(C(C)C)cc2Br)n1 | 5 nM
CCN(CC)c1cc(C)nc(N(CC)c2c(Br)cc(C(C)=O)cc2OC)n1 | 28 nM
CCCCN(Cc1nn[nH]n1)c1cc(C)nc(N(CC)c2ccc(C(C)C)cc2Br)n1 | > 1000 nM
CCN(CC)c1cc(C)nc(N(CC)c2c(Br)cc(Br)cc2OC)n1 | 31 nM
CCN(c1nc(C)nc(N(CCOC)CC2CC2)n1)c1c(C)cc(C)cc1C | 25 nM
CCCCN(CCOC)c1nc(C)nc(N(CC)c2c(C)cc(C)cc2C)n1 | 13 nM
CCN(CC)c1cc(C)nc(N(CC)c2ccc(C(C)C)cc2Br)n1 | 22 nM and 30 nM
CCN(c1nc(C)cc(C)n1)c1c(Br)cc(N(C)C)cc1OC | 5 nM
C=CCNc1nc(C)nc(N(CC)c2ccc(C(C)C)cc2Br)n1 | 33 nM
CCCN(CCC#N)c1nc(C)nc(N(CC)c2ccc(N(C)C)cc2C)n1 | 7 nM
CCN(CC)c1nc(C)nc(N(CC)c2c(Br)cc(OC)cc2OC)n1 | 10 nM
CCN(CC)c1cc(C)nc(N(CC)c2ccc(S(C)(=O)=O)cc2Br)n1 | 24 nM

SMILES | Ki
CCN(CC)c1cc(C)nc(N(CC)c2ccc(C(C)=O)cc2Br)n1 | 5 nM
CCN(CC)c1cc(C)nc(N(CC)c2ccc(SC)cc2Br)n1 | 24 nM
CCC(CC)c1cc(C)nc(N(CC)c2ccc(C(C)C)cc2Br)n1 | 2 nM
CCCN(CC1CC1)c1nc(C)nc(N(CC)c2ccc(N(C)C)cc2C(F)(F)F)n1 | 5 nM
CCCN(CCOC)c1cc(C)nc(N(CC)c2ccc(C(C)C)cc2Br)n1 | 11 nM
C=CCN(CC=C)c1nc(C)nc(N(CC)c2ccc(OC(F)(F)F)cc2Br)n1 | 4 nM
CCN(CCOC)c1nc(C)nc(N(CC)c2c(C)cc(C)cc2C)n1 | 31 nM
CCN(CCOC)c1cc(C)nc(N(CC)c2ccc(C(C)C)cc2Br)n1 | 22 nM
CCC(CC)CNc1cc(C)nc(N(CC)c2ccc(C(C)C)cc2Br)n1 | 44 nM
CCN(CC)c1nc(C)nc(N(CC)c2ccc(C(C)=O)cc2Br)n1 | 17 nM
CCN(c1ccc(C(C)C)cc1)c1nc(C)cc(C)n1 | > 1000 nM
C=CCN(CC=C)c1nc(C)nc(N(CC)c2ccc(N(C)C)cc2Br)n1 | 3 nM
CCCN(CCC)c1nc(C)nc(N(CC)c2ccc(N(C)C)cc2C)n1 | 7 nM
CCN(c1nc(C)cc(C)n1)c1c(Br)cc(C(C)C)cc1SC | 51 nM
CCN(c1nc(C)cc(C)n1)c1ccc(OC)cc1SC | 60 nM
CCN(c1nc(C)cc(C)n1)c1ccc(N(C)C)cc1SC | 20 nM
CCCN(CCC)c1nc(C)nc(N(CC)c2ccc(N(C)C)cc2C(F)(F)F)n1 | 6 nM
CCN(c1nc(C)cc(N2CCNCC2)n1)c1ccc(C(C)C)cc1Br | > 1000 nM
CCN(c1nc(C)cc(C)n1)c1ccc(OC)cc1Br | 35 nM
CCCN(CCC)c1nc(C)nc(N(CC)c2ccc(C(C)C)cc2Br)n1 | 4 nM
CCN(CC)c1cc(C)nc(N(CC)c2ccc(N(C)C)cc2C(F)(F)F)n1 | 11 nM
CCCCc1ccc(N(CC)c2nc(C)cc(C)n2)c(Br)c1 | > 100 nM
CCCN(CC1CC1)c1cc(C)nc(N(CC)c2ccc(C(C)C)cc2Br)n1 | 9 nM
CCCCN(CC)c1cc(C)nc(N(CC)c2ccc(C(C)C)cc2Br)n1 | 19 nM

SMILES | Ki
CCN(CC)c1cc(C)nc(N(CC)c2c(Cl)cc(OC)cc2OC)n1 | 10 nM
CCN(CC)c1cc(C)nc(N(CC)c2c(Br)cc(OC)cc2OC)n1 | 48 nM
CCCN(c1cc(C)nc(N(CC)c2ccc(C(C)C)cc2Br)n1)C1CC1 | 5 nM
CCN(CC)c1cc(C)nc(N(CC)c2ccc(I)cc2Br)n1 | 9 nM
CCN(c1nc(C)cc(C)n1)c1ccc(C(C)=O)cc1SC | 90 nM
CCCN(CCC#N)c1nc(C)nc(N(CC)c2ccc(N(C)C)cc2C(F)(F)F)n1 | 5 nM
CCCCN(CC)c1nc(C)nc(N(CC)c2ccc(OC(F)(F)F)cc2Br)n1 | 5 nM
CCN(c1nc(C)nc(N(CC2CC2)CC2CC2)n1)c1ccc(N(C)C)cc1C(F)(F)F | 5 nM
CCN(CC)c1cc(C)nc(N(CC)c2c(Cl)cc(OC)cc2Cl)n1 | 15 nM
CCN(Cc1ccccc1)c1cc(C)nc(N(CC)c2ccc(C(C)C)cc2Br)n1 | 17 nM
CCN(c1nc(C)cc(N(CCOC)CCOC)n1)c1ccc(C(C)C)cc1Br | 25 nM
CCN(c1nc(C)cc(C)n1)c1ccccc1Br | > 1000 nM
CCN(c1nc(C)nc(N(CCOC)CCOC)n1)c1ccc(C(C)C)cc1Br | 18 nM
CCN(c1nc(C)cc(C)n1)c1ccc(C(C)(C)C)cc1Br | > 100 nM
CCCCN(CC)c1cc(C)nc(N(CC)c2ccc(C(C)=O)cc2Br)n1 | 8 nM
CCCCN(CCC#N)c1nc(C)nc(N(CC)c2ccc(N(C)C)cc2C)n1 | 8 nM
CCc1cc(CC)nc(N(CC)c2ccc(C(C)C)cc2Br)n1 | > 100 nM
CCN(CC)c1nc(C)nc(N(CC)c2ccc(N(C)C)cc2Br)n1 | 6 nM
C=CCN(CC=C)c1nc(C)nc(N(CC)c2ccc(C(C)C)cc2Br)n1 | 4 nM
CCN(c1nc(C)cc(N2CCCCC2)n1)c1ccc(C(C)C)cc1Br | 29 nM
CCN(c1nc(C)cc(N2CCOCC2)n1)c1ccc(C(C)C)cc1Br | 22 nM
CCCCN(CC#N)c1nc(C)nc(N(CC)c2ccc(N(C)C)cc2C)n1 | 8 nM
CCCCN(Cc1nnnn1C)c1cc(C)nc(N(CC)c2ccc(C(C)C)cc2Br)n1 | 41 nM
CCN(c1nc(C)cc(C)n1)c1c(Br)cc(OC)cc1OC | 12 nM

Molecular target: T2, Corticotropin-releasing factor receptor 1 (Rattus norvegicus, UniProt P35353)
T2 sequence (P35353 whole entry): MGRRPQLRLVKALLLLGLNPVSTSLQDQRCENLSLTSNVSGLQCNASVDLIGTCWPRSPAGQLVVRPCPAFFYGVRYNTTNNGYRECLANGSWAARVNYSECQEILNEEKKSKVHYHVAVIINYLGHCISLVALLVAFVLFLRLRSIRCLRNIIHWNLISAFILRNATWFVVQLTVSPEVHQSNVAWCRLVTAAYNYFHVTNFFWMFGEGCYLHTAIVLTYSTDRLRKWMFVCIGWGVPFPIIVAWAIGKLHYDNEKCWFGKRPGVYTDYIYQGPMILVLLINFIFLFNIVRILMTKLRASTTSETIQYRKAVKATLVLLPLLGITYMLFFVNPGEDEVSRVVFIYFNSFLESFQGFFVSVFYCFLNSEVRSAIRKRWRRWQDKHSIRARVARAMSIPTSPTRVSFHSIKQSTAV
Assay: Binding affinity was measured on rat Corticotropin releasing factor receptor 1
Conditions: not given

SMILES | Ki [nM]
CCc1ccc(N(C)c2nc(C)cc(C)n2)c(Br)c1 | 187
CCN(c1nc(C)cc(C)n1)c1ccc(C(C)C)cc1I | 38
Cc1cc(C)nc(N(C)c2ccccc2I)n1 | 3650
Cc1ccc(N(C)c2nc(C)cc(C)n2)c(Br)c1 | 1100

Tested on: not listed separately
Assay: The clearance was measured in rat at dose 30 mg/kg after intravenous administration.
Type: ADME, organism-based
Parameters: dose 30 mg/kg, route intravenous
Conditions: in vivo

SMILES | clearance [mL/min/kg]
CCN(c1nc(C)cc(C)n1)c1c(Br)cc(OC)cc1OC | 88.7

Tested on: not listed separately
Assay: The maximum concentration of the compound was measured in rat at dose 30 mg/kg after intravenous administration.
Type: ADME, organism-based
Parameters: dose 30 mg/kg, route intravenous
Conditions: in vivo

SMILES | Cmax [nM]
CCN(c1nc(C)cc(C)n1)c1c(Br)cc(OC)cc1OC | 1880
